Laboratory results: the supplement of paper PMC13380429

What was measured:
Settings in all cases: 72 h
Caco-2 [1] = assay: relative viability EC50 (midpoint between 100% and the lowest measured viability); higher = less toxic
Vero E6 [2] = assay: as above
Calu-3 [3] = assay: as above
HepG2 [4] = assay: drug sensitivity score (DSS) for viability; higher = more toxic; extreme values may be limits of the assay
Caco-2 [5] = assay: as above
U2OS [6] = assay: as above
Vero E6 [7] = assay: as above
Calu-3 [8] = assay: as above
HepG2 [9] = assay: cell viability relative to DMSO; higher = less toxic
Caco-2 [10] = assay: as above
U2OS [11] = assay: as above
Vero E6 [12] = assay: as above
Calu-3 [13] = assay: as above
HepG2 [14] = assay: relative viability EC50 (midpoint between 100% and the lowest measured viability); higher = less toxic
U2OS [15] = assay: as above

| SMILES | relative viability EC50 (Caco-2 [1]) [µM] | relative viability EC50 (Vero E6 [2]) [µM] | relative viability EC50 (Calu-3 [3]) [µM] | drug sensitivity score (HepG2 [4]) | drug sensitivity score (Caco-2 [5]) | drug sensitivity score (U2OS [6]) | drug sensitivity score (Vero E6 [7]) | drug sensitivity score (Calu-3 [8]) | cell viability (HepG2 [9]; 1 nM) [%] | cell viability (HepG2 [9]; 10 nM) [%] | cell viability (HepG2 [9]; 100 nM) [%] | cell viability (HepG2 [9]; 1000 nM) [%] | cell viability (HepG2 [9]; 10000 nM) [%] | cell viability (Caco-2 [10]; 1 nM) [%] | cell viability (Caco-2 [10]; 10 nM) [%] | cell viability (Caco-2 [10]; 100 nM) [%] | cell viability (Caco-2 [10]; 1000 nM) [%] | cell viability (Caco-2 [10]; 10000 nM) [%] | cell viability (U2OS [11]; 1 nM) [%] | cell viability (U2OS [11]; 10 nM) [%] | cell viability (U2OS [11]; 100 nM) [%] | cell viability (U2OS [11]; 1000 nM) [%] | cell viability (U2OS [11]; 10000 nM) [%] | cell viability (Vero E6 [12]; 1 nM) [%] | cell viability (Vero E6 [12]; 10 nM) [%] | cell viability (Vero E6 [12]; 100 nM) [%] | cell viability (Vero E6 [12]; 1000 nM) [%] | cell viability (Vero E6 [12]; 10000 nM) [%] | cell viability (Calu-3 [13]; 1 nM) [%] | cell viability (Calu-3 [13]; 10 nM) [%] | cell viability (Calu-3 [13]; 100 nM) [%] | cell viability (Calu-3 [13]; 1000 nM) [%] | cell viability (Calu-3 [13]; 10000 nM) [%] | relative viability EC50 (HepG2 [14]) [µM] | relative viability EC50 (U2OS [15]) [µM] |
| --- | --- | --- | --- | --- | --- | --- | --- | --- | --- | --- | --- | --- | --- | --- | --- | --- | --- | --- | --- | --- | --- | --- | --- | --- | --- | --- | --- | --- | --- | --- | --- | --- | --- | --- | --- |
| COc1cc2c(Oc3ccc4[nH]c(C)cc4c3F)ccnc2cc1OCC1(N)CC1 [anlotinib] | > 10 | > 10 | > 10 | 1.8 | 1.8 | 2.4 | 0.5 | 0.2 | 106 | 99.6 | 101 | 103 | 59.2 | 91.7 | 93.8 | 94.4 | 87.4 | 76.2 | 95.1 | 102 | 96.9 | 99.4 | 54.7 | 91.2 | 98.6 | 97 | 95.2 | 84.4 | 94.8 | 93.4 | 99.3 | 100 | 84.5 |  |  |
| CCCCN(CC)c1nc(C)nc2c1c(C)c(C)n2-c1c(C)cc(C)cc1C [antalarmin] |  | > 10 | > 10 | 1.1 | 2.5 | 0 | 0 | 0 | 99 | 97.2 | 97.4 | 97.8 | 77.2 | 105 | 92.9 | 102 | 91.4 | 70.3 | 107 | 98.8 | 98.1 | 99 | 101 | 96 | 92.6 | 97.3 | 101 | 98.2 | 102 | 94.4 | 95.6 | 99 | 104 | > 10 | > 10 |
| CCOC(=O)OC(C)OC(=O)[C@@H]1N2C(=O)[C@@H](NC(=O)[C@H](N)c3ccccc3)[C@H]2SC1(C)C (stereo not given in full) [bacampicillin] | > 10 | > 10 | > 10 | 0 | 0 |  | 0 | 0 | 97.6 | 114 | 103 | 100 | 94.6 | 96.3 | 94 | 95.9 | 98 | 104 |  |  |  |  |  | 91.8 | 96.7 | 97.9 | 98.1 | 98.6 | 94.1 | 82.4 | 102 | 103 | 110 | > 10 |  |
| O=c1ccc2ccc(OCCCCN3CCN(c4cccc5sccc45)CC3)cc2[nH]1 [brexpiprazole] | > 10 | > 10 | > 10 | 3.5 | 0 | 0.1 | 0 | 0 | 100 | 96.3 | 96 | 92 | 56.8 | 91.7 | 96.7 | 87.3 | 98.1 | 87.5 | 97.6 | 99 | 95.6 | 101 | 86.6 | 99.1 | 97.5 | 94.5 | 94.5 | 94.3 | 95.5 | 85 | 96 | 91.6 | 104 |  | > 10 |
| CN(C)C(=O)COC(=O)Cc1ccc(OC(=O)c2ccc(NC(=N)N)cc2)cc1 [camostat-mesilate] | > 10 | > 10 | > 10 |  | 0 | 0 | 0 | 0 |  |  |  |  |  | 102 | 98.9 | 104 | 105 | 108 | 97.8 | 102 | 94.2 | 104 | 102 | 110 | 99.7 | 101 | 103 | 106 | 100 | 106 | 98.2 | 110 | 103 |  | > 10 |
| Nc1ccncc1 [dalfampridine] | > 10 | > 10 | > 10 |  | 0 |  | 0 | 0 |  |  |  |  |  | 102 | 108 | 99.1 | 106 | 96 |  |  |  |  |  | 107 | 102 | 101 | 101 | 98.9 | 102 | 104 | 90.9 | 99 | 100 |  |  |
| COC(=O)/C=C/C(=O)OCCN1C(=O)CCC1=O [diroximel-fumarate] | > 10 | > 10 | > 10 | 1.8 | 0 | 0 | 0 | 0 | 103 | 115 | 87.7 | 115 | 52.1 | 109 | 104 | 107 | 97.6 | 92.4 | 101 | 101 | 105 | 103 | 98.9 | 98.4 | 102 | 92.2 | 99 | 106 | 112 | 112 | 120 | 92.5 | 123 |  | > 10 |
| CC1=C(CC(=O)O)c2cc(F)ccc2/C1=C\c1ccc(S(C)(=O)=O)cc1 [exisulind] | > 10 | > 10 | > 10 | 1.5 | 2.2 | 0 | 0 | 0 | 106 | 95.3 | 95.4 | 96.7 | 74.8 | 96.4 | 104 | 91.6 | 84.6 | 94.8 | 103 | 94.7 | 100 | 97.5 | 100 | 104 | 96.2 | 87.8 | 110 | 94.8 | 95.6 | 102 | 103 | 97.6 | 112 |  | > 10 |
| CC(C(=O)O)c1cccc(Oc2ccccc2)c1 (stereo not given) [fenoprofen] | > 10 | > 10 | > 10 |  | 0 | 0 | 0 | 0 |  |  |  |  |  | 98.4 | 93.5 | 98.7 | 101 | 108 | 96.7 | 99.9 | 97.5 | 103 | 105 | 101 | 94 | 95.3 | 88.7 | 112 | 98.1 | 112 | 111 | 103 | 103 |  | > 10 |
| C[C@@H](c1nc(-c2ccc(C#N)cc2)cs1)[C@](O)(Cn1cncn1)c1cc(F)ccc1F [isavuconazole] |  | > 10 | > 10 | 0.6 | 1.8 | 0 | 0 | 0 | 106 | 96 | 93.8 | 100 | 79.2 | 96.3 | 99.8 | 96 | 93.9 | 74.3 | 98.2 | 102 | 93.9 | 101 | 90.9 | 100 | 98 | 102 | 98.6 | 100 | 95.7 | 90.1 | 98.7 | 101 | 99.2 | > 10 | > 10 |
| NCCCC[C@H](N[C@@H](CCc1ccccc1)C(=O)O)C(=O)N1CCC[C@H]1C(=O)O [lisinopril] |  | > 10 | > 10 |  |  | 0 | 0 | 0 |  |  |  |  |  |  |  |  |  |  | 102 | 95.7 | 95 | 97 | 97.2 | 104 | 105 | 102 | 101 | 99.2 | 109 | 94.7 | 110 | 98.8 | 93.4 |  | > 10 |
| CCN(CC)C(=O)[C@@]1(c2ccccc2)C[C@H]1CN [milnacipran] | > 10 | > 10 | > 10 | 0 | 0 |  | 0 | 0 | 101 | 86.7 | 98.9 | 107 | 90.9 | 99.9 | 87.3 | 87.5 | 99.8 | 98.7 |  |  |  |  |  | 94.6 | 102 | 97.8 | 102 | 98.2 | 106 | 93.5 | 97.9 | 95 | 97.9 | > 10 |  |
| CCOc1cc2ncc(C#N)c(Nc3ccc(F)c(Cl)c3)c2cc1NC(=O)/C=C/CN(C)C [pelitinib] |  | 0.334 | 0.0707 | 8.1 | 7.9 | 9.3 | 15.9 | 21.7 | 107 | 99.5 | 99 | 59.7 | 40.2 | 96.9 | 96.9 | 85.8 | 64.7 | 51.2 | 99 | 98.9 | 93.6 | 67.7 | 5.3 | 106 | 96.4 | 87.3 | 22.6 | 7.9 | 88.1 | 83 | 45 | 32 | 9.5 | 0.706 | 1.38 |
| CCCN1C[C@H](CSC)C[C@@H]2c3cccc4[nH]cc(c34)C[C@H]21 [pergolide] | > 10 | > 10 | > 10 |  | 0 | 0 | 0 | 0 |  |  |  |  |  | 93.2 | 93 | 99.5 | 96.4 | 100 | 97.3 | 102 | 100 | 102 | 97.3 | 95.9 | 96.5 | 95.6 | 90 | 96.4 | 89.8 | 105 | 104 | 99.7 | 101 |  | > 10 |
| O=C(O)CCC(=O)Nc1ccc(S(=O)(=O)Nc2nccs2)cc1 [succinylsulfathiazole] | > 10 | > 10 | > 10 |  | 0 | 0 | 0 | 0 |  |  |  |  |  | 93.9 | 100 | 89.6 | 104 | 102 | 95.3 | 100 | 95.7 | 99.9 | 104 | 97.8 | 97.3 | 98.7 | 92.1 | 112 | 94 | 96.2 | 96.1 | 112 | 108 |  | > 10 |
| COC[C@@H](c1ccc(C(F)(F)F)cc1)N1CCN(C2(C)CCN(C(=O)c3c(C)ncnc3C)CC2)C[C@@H]1C [vicriviroc] |  | > 10 | > 10 | 0.2 |  | 0 | 0 | 0 | 98.8 | 101 | 98.9 | 101 | 84.8 |  |  |  |  |  | 100 | 94.2 | 95 | 96.6 | 95 | 95.3 | 97 | 89.9 | 95.7 | 94.7 | 106 | 93.6 | 104 | 96.6 | 104 | > 10 | > 10 |
